Converted amounts (≈) assume the structure as drawn. Read-outs that look alike come from different tables or passages of the source.

How the values of series [1] were obtained:
The pH of the test medium in this study was measured to be 8.50 ± 0.10. The neutral fraction (fn) of the target compounds, their pH-adjusted octanol–water coefficients (log Dow), and their pH-adjusted lipid–water coefficients (log Dlipw) were calculated for this pH condition (Table 1). The calculation and related details are given in the Supporting Information (SI) in Text S1. […]
Text 1. Calculation of physicochemical property parameters
The pH of the artificial freshwater environment for D. magna was measured as […]. The fraction of neutral species (f n) for the test compounds was calculated as the following equation:1–3 […]
where i is 1 for acids and -1 for bases. The pH-adjusted octanol-water coefficient log

Series [2] concerns D. magna. The settings on record: for BCF in vivo (dynamic BCF): ku/kd; for ku (uptake rate constant): 24 h uptake phase; for BCF in vivo ratio / half-life in vivo ratio: methylated derivative over demethylated counterpart.
Series [3] has as its system D. magna. Description: Interconversion (methylation/demethylation) in D. magna.
The nature of series [4]: in vivo. The settings on record: Daphnia magna. How it is done: Preliminary tests were conducted for each target compound at widely spaced concentrations to identify the concentration range for deriving an accurate dose–response curve. The stock solutions of individual test compounds were prepared in methanol and diluted with 10 mL of aerated AFW to different concentrations in 20 mL glass vials. The methanol volume was set to 100 μL in each vial as the solvent carrier, and a control group containing 100 μL of methanol without the target compound was used as the carrier solvent control. Each test included at least five concentration levels, and the concentrations of test compounds in the medium were experimentally measured (SI, Table S1). Each treatment included four replicates. […] The obtained dose–response data were fitted to the Boltzmann equation:[24] [drawing 1] 1 where C is the measured concentration of the test compound.

The test system of series [5] is D. magna. The settings on record: in vivo.
For series [6] the following is noted: cited from earlier work; for pKa: measured value, ref CompTox Chemicals Dashboard; for logKow: measured values, ref PubChem.
The nature of series [7]: in vivo. The conditions noted are these: whole D. magna (wet weight), 1 mg L^–1, pH 8.5.
In the next series the test system is H. azteca and G. pulex. The conditions noted are these: cited from earlier work.
[8] abbreviates: end of uptake phase, 24 h, 1 mg L^–1 nominal.
Setting [9] is: pH 8.50, calculated, crosschecked with ChemAxon.
Setting [10] is: after 2 h of exposure, 1 mg L^–1 nominal.

In the case of `O=C1CN=C(c2ccccc2)c2cc(Cl)ccc2N1` [DM-diazepam, reference compound], in series [1] (pH 8.50, calculated), the “fn (neutral fraction)” value is 1. The “BCF in vivo (dynamic BCF)” value with D. magna [2] (D. magna, 1 mg L^–1 nominal) was 9.8 ± 0.3 L kg^–1, w.w. Also, the “ku (uptake rate constant)” value in the series on D. magna [2] (D. magna) was determined as 20 ± 1.7 mL/min/kg. Also, in the series on D. magna [3] (at the end of depuration), the “molar equivalent of demethylated TP in D. magna” value is 33.5%.
`O=C(O)c1ccc(O)cc1` [DM-methylparaben] showed a logDow in series [1] (pH 8.5) of -2.38. In addition, the “fn (neutral fraction)” value in series [1] (pH 8.50, calculated) was 0. Moreover, in the series “in vivo [4]”, the LC50 at 48 h was determined as 226 ± 17.3 µg/mL (≈ 1630 µM). Also, in the series on D. magna [2] (D. magna, 1 mg L^–1 nominal), the “BCF in vivo (dynamic BCF)” value is recorded as 0.9 ± 0.5 L kg^–1, w.w. The “ku (uptake rate constant)” value in the series on D. magna [2] (D. magna) was determined as 5 ± 0 mL/min/kg. Also, the “concentration in D. magna” value in the series on D. magna [2] (setting [8]) was 682.7 ± 91.5 ng g^–1 (w.w.). In the series with D. magna [2], the “BCF in vivo ratio” value worked out at 1.0 and the “half-life in vivo ratio” value is reported as 1.0. In addition, in the series on D. magna [5] (Daphnia magna, 12 h, pH 8.5), the “molar equivalent of demethylated TP relative to methylated parent in D. magna” value is “about 2.0%”. For the same compound, the “molar equivalent of demethylated TP in D. magna” value with D. magna [5] (Daphnia magna, 24 h, pH 8.5) was 54.8%. In series [6], the pKa is listed as 4.54 and the logKow is listed as 1.58. For the same compound, the half-life in the series “in vivo [7]” is 2.2 h.
As to `C[C@H](C(=O)O)c1ccc2cc(O)ccc2c1` [DM-naproxen], in series [1] (pH 8.50, calculated), the “fn (neutral fraction)” value is 0 and the logDlipw is recorded as −0.67. Moreover, the logDow in series [1] (setting [9]) was -1.32. In series [1] (pH 8.50, calculated, listed as DM-Naproxen), the logDlipw is -0.67. The compound also yielded an LC50 at 48 h in “in vivo [4]” of 67.9 ± 6 µg/mL (≈ 314 µM). In addition, the “BCF in vivo (dynamic BCF)” value in the series with D. magna [2] (D. magna, 1 mg L^–1 nominal) is given as 0 L kg^–1, w.w. In addition, in the series with D. magna [2] (bioaccumulation experiment, 1 mg L^–1 nominal), the “level in D. magna” value was “below the LOD”. Besides, in the series with D. magna [5] (Daphnia magna, pH 8.5), the “formation rate of demethylated TP” value was determined as 1.5 ± 0.3 nmol g^–1 h^–1.
`COc1ccc(NC(C)=O)cc1` [M-acetaminophen]: in series [1] (pH 8.50, calculated), the “fn (neutral fraction)” value is given as 1 and the logDlipw is 1.45. The logDow in series [1] (setting [9]) is on record as 1.03. The compound further had an LC50 at 48 h in “in vivo [4]” of 32.1 ± 5.7 µg/mL (≈ 194 µM). The “BCF in vivo (dynamic BCF)” value in the series with D. magna [2] (D. magna, 1 mg L^–1 nominal) is 10.0 ± 0.0 L kg^–1, w.w. Moreover, the “ku (uptake rate constant)” value in the series with D. magna [2] (D. magna) came to 288 ± 6.7 mL/min/kg. The “fold difference of concentration in D. magna vs acetaminophen” value in the series on D. magna [2] (after 2 h of exposure) is on record as 28 fold. For the same compound, the “concentration in D. magna” value with D. magna [2] (setting [10]) is 8730.7 ± 2900.9 ng g^–1 (w.w.). For the same compound, in the series on D. magna [2], the “BCF in vivo ratio” value stood at 33.3 and the “half-life in vivo ratio” value turned out to be 0.4. For the same compound, the “BCF in vivo ratio” value in the series with D. magna [2] (listed as methylated acetaminophen) is “about 33”. Further, in the series with D. magna [5], the “demethylation in D. magna (demethylated product in exposed D. magna)” value (shortened to “demethylation in D. magna”) was “not detected”. The logKow in series [6] was 1.03. The half-life in the series “in vivo [7]” was 0.4 h.
`CC(=O)Nc1ccc(O)cc1` [acetaminophen, reference compound]: in series [1] (pH 8.5), the logDlipw is 0.89 and the logDow worked out at 0.41. Also, the “fn (neutral fraction)” value in series [1] (pH 8.50, calculated) is 0.9. Besides, in “in vivo [4]” (other: waterborne exposure in the test medium), the LC50 at 48 h amounted to 21.2 ± 2.4 µg/mL (≈ 140 µM). Besides, the “BCF in vivo (dynamic BCF)” value with D. magna [2] (D. magna, 1 mg L^–1 nominal) was 0.3 ± 0.0 L kg^–1, w.w. Moreover, the “ku (uptake rate constant)” value in the series with D. magna [2] (D. magna) is 3.3 ± 0 mL/min/kg. Moreover, the “rise of BCF after methylation” value in the series on D. magna [2] (D. magna, in vivo) is reported as “approximately 33 fold”. For the same compound, the “concentration in D. magna” value in the series with D. magna [2] (setting [10]) is reported as 308.7 ± 42.6 ng g^–1 (w.w.). In the series on D. magna [2], the “BCF in vivo ratio” value turned out to be 1.0 and the “half-life in vivo ratio” value was 1.0. In series [6], the pKa is recorded as 9.38 and the logKow is 0.46. For the same compound, the half-life in “in vivo [7]” is 1 h.
For the compound `CN1C(=O)CN=C(c2ccccc2)c2cc(Cl)ccc21` [diazepam, reference compound], the “fn (neutral fraction)” value in series [1] (pH 8.50, calculated) is 1. For the same compound, in the series on D. magna [2] (D. magna, 1 mg L^–1 nominal), the “BCF in vivo (dynamic BCF)” value was 9.0 ± 0.4 L kg^–1, w.w. Moreover, in series [6], the logKow is recorded as 2.82. For the same compound, the “demethylation in D. magna” value in the series on D. magna [3] (exposure to individual methylated compound) is given as “evident”.
`COC(=O)Cc1ccccc1Nc1c(Cl)cccc1Cl` [methylated diclofenac]: the “bioaccumulation relative to diclofenac” value with H. azteca and G. pulex is given as 25–110 fold.
Regarding `COC(=O)c1ccc(O)cc1` [methylparaben], in series [1] (pH 8.50, calculated), the “fn (neutral fraction)” value is on record as 0.41 and the logDlipw is on record as 1.93. In addition, the logDow in series [1] (setting [9]) is listed as 1.57. In addition, the LC50 at 48 h in the series “in vivo [4]” was 34.4 ± 4.3 µg/mL (≈ 226 µM). Besides, the “BCF in vivo (dynamic BCF)” value with D. magna [2] (D. magna, 1 mg L^–1 nominal) is reported as 2.8 ± 0.2 L kg^–1, w.w. For the same compound, the “ku (uptake rate constant)” value with D. magna [2] (D. magna) was found to be 12 ± 1.7 mL/min/kg. The “concentration in D. magna” value with D. magna [2] (setting [8]) was 2216.3 ± 85.7 ng g^–1 (w.w.). For the same compound, in the series with D. magna [5], the “demethylation in D. magna” value is on record as “evident”. Besides, the half-life in the series “in vivo [7]” was 2.7 h.
For `COc1ccc2cc([C@H](C)C(=O)O)ccc2c1` [naproxen, reference compound], the “BCF in vivo (dynamic BCF)” value in the series on D. magna [2] (D. magna, 1 mg L^–1 nominal) is 1.5 ± 0.6 L kg^–1, w.w. In the series with D. magna [5], the “demethylation in D. magna” value is “evident”.

Source of the values: PMC10569044, “Methylation and Demethylation of Emerging Contaminants Changed Bioaccumulation and Acute Toxicity in Daphnia magna” (Environmental Science & Technology, 2023).
